In ChEMBL document CHEMBL1201862, “PubChem BioAssay data set” (2004):
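Cells were grown in 96-well plates and exposed to each compound for 48 hours at five concentrations; endpoints were interpolated linearly between bracketing concentrations, or set to the highest concentration if not reached. GI50 = concentration required for 50% inhibition of growth.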 Active and inactive are the calls of the source. Cut-off read from the data, not from the text of the source: active = GI50 up to about 1.1 µM and inactive = higher.

Tests used:
Assay in all cases: NCI tumour cell line growth inhibition, 48 h
MOLT-4 = system: MOLT-4
HT-29 = system: HT-29
SK-MEL-2 = system: SK-MEL-2
A549 = system: A549
SNB-19 = system: SNB-19
CAKI-1 = system: CAKI-1
RXF 393 = system: RXF 393
A498 = system: A498
SR = system: SR
NCI-H226 = system: NCI-H226
SK-MEL-5 = system: SK-MEL-5
NCI-H460 = system: NCI-H460
PC-3 = system: PC-3
EKVX = system: EKVX
NCI-H23 = system: NCI-H23
Malme-3M = system: Malme-3M
HCC 2998 = system: HCC 2998
HCT-15 = system: HCT-15
CCRF-CEM = system: CCRF-CEM
NCI/ADR-RES = system: NCI/ADR-RES

Compound | GI50 (MOLT-4) | GI50 (HT-29) | GI50 (SK-MEL-2) | GI50 (A549) | GI50 (SNB-19) | GI50 (CAKI-1) | GI50 (RXF 393) | GI50 (A498) | GI50 (SR) | GI50 (NCI-H226) | GI50 (SK-MEL-5) | GI50 (NCI-H460) | GI50 (PC-3) | GI50 (EKVX) | GI50 (NCI-H23) | GI50 (Malme-3M) | GI50 (HCC 2998) | GI50 (HCT-15) [µM] | GI50 (CCRF-CEM) | GI50 (NCI/ADR-RES)
CC1(CO)OC(n2cnc3cncnc32)CC1O (stereo not given) | > 100 µM (inactive) | > 100 µM (inactive) | > 100 µM (inactive) | > 100 µM (inactive) | > 100 µM (inactive) | > 100 µM (inactive) | > 100 µM (inactive) | > 100 µM (inactive) | > 100 µM (inactive) | > 100 µM (inactive) | > 100 µM (inactive) | > 100 µM (inactive) | > 100 µM (inactive) | > 100 µM (inactive) | > 100 µM (inactive) | > 100 µM (inactive) | > 100 µM (inactive) | > 100 | > 100 µM (inactive) | > 100 µM (inactive)
CC(=O)Nc1cc2c3c(c1)CCCN3CCC2 | > 100 µM (inactive) | > 100 µM (inactive) | > 100 µM (inactive) | > 100 µM (inactive) | > 100 µM (inactive) | > 100 µM (inactive) | > 100 µM (inactive) | > 100 µM (inactive) | > 100 µM (inactive) | > 100 µM (inactive) | > 100 µM (inactive) | > 100 µM (inactive) | > 100 µM (inactive) | 64.9 µM (inactive) | > 100 µM (inactive) | > 100 µM (inactive) | > 100 µM (inactive) | > 100 | > 100 µM (inactive) | > 100 µM (inactive)
CC(C)/C(Cl)=N\OC(=O)Nc1ccc(C#N)cc1 | 1.92 µM (inactive) | 21 µM (inactive) | 11.8 µM (inactive) | 20 µM (inactive) | 18.3 µM (inactive) | 5.58 µM (inactive) | 1.85 µM (inactive) | 14.5 µM (inactive) | 2.17 µM (inactive) | 13.1 µM (inactive) | 5.11 µM (inactive) | 17.3 µM (inactive) | 16.5 µM (inactive) | 2.58 µM (inactive) | 15.2 µM (inactive) | 2.62 µM (inactive) | 16.4 µM (inactive) | 10.5 | 1.05 µM (active) | 17.1 µM (inactive)
COc1ccc2c(c1)c(=Cc1ccc(N(C)C)cc1)c1cc(-c3ccccc3)[n+](C)n12 | 0.305 µM (active) | 0.171 µM (active) | 0.452 µM (active) | 0.643 µM (active) | 0.282 µM (active) | 1.49 µM (inactive) | 0.41 µM (active) | 1.33 µM (inactive) | 0.337 µM (active) | 0.15 µM (active) | 0.304 µM (active) | 0.245 µM (active) | 0.322 µM (active) | 0.255 µM (active) | 0.0592 µM (active) | 0.343 µM (active) | 0.324 µM (active) | 1.65 | 0.269 µM (active) | 3.66 µM (inactive)
